# Columns and labels:
# [1] = Caco-2 permeability (bi-directional; pH 7.4/pH 7.4); assay type: in vitro ADME; details: human; for Papp A→B at 120 min, 10 μM: Caco-2, pH 7.4, read-out: Permeability (cm^2/s × 10^6); for efflux ratio at 120 min, 10 μM: Caco-2, ratio of B-A and A-B permeabilities
# Protocol: Caco-2 cells are used as an in vitro model of the human intestinal epithelium and permit assessment of the intestinal permeability of potential drugs. Test compound is added to either the apical or basolateral side of a confluent monolayer of Caco-2 cells and permeability is measured by monitoring the appearance of the test compound on the opposite side of the membrane using LC-MS/MS. Apparent permeability (Papp) coefficients, efflux ratio for the test compound and recovery values were determined.
# To measure the permeability of test compound in the apical to basolateral (A-B) and basolateral to apical (B-A) direction across Caco-2 cells.
# Caco-2 cells obtained from the ATCC are used between passage numbers 40-60. Cells are seeded on to Millipore Multiscreen Caco-2 plates at 1×10^5 cells/cm^2. They are cultured for 20 days in DMEM and media is changed every two or three days. On day 20 the permeability study is performed.
# On day 20, the monolayers are prepared by rinsing both basolateral and apical surfaces twice with HBSS at 37° C. Cells are then incubated with HBSS in both apical and basolateral compartments for 40 min to stabilize physiological parameters. HBSS is then removed from the apical compartment and replaced with test compound dosing solutions. […] The fluorescent integrity marker lucifer yellow is also included in the dosing solution. Analytical standards are made from dosing solutions. The apical compartment inserts are then placed into ‘companion’ plates containing fresh HBSS. For basolateral to apical (B-A) permeability determination the experiment is initiated by replacing buffer in the inserts then placing them in companion plates containing dosing solutions. At 120 minutes the companion plate is removed and apical and basolateral samples diluted for analysis by LC-MS/MS. Test compound permeability was assessed in duplicate. On each plate, compounds of known permeability characteristics were run as controls.
# Test and control compounds were quantified by LC-MS/MS cassette analysis using a 5-point calibration with appropriate dilution of the samples. Cyprotex generic analytical conditions were used. The starting concentration (C0) and experimental recovery were calculated from both apical and basolateral compartment concentrations.
# The integrity of the monolayers throughout the experiment was checked by monitoring lucifer yellow permeation using fluorimetric analysis. Lucifer yellow permeation is low if monolayers have not been damaged. […] If lucifer yellow Papp values are above QC limits in both replicate wells for a test compound, the compound was re-tested.
# Data Analysis: The permeability coefficient for each compound (Papp) is calculated from the following equation: […]
# wherein dQ/dt is the rate of permeation of the drug across the cells, C0 is the donor compartment concentration at time zero and A is the area of the cell monolayer. C0 is obtained from analysis of donor and receiver compartments at the end of the incubation period. It is assumed that all of the test compound measured after 120 minutes incubation was initially present in the donor compartment at 0 minutes. An efflux ratio (ER) is derived as follows:
# Talinolol (a known P-gp substrate) is also included as a control compound to assess whether functional P-gp is present in the Caco-2 cell monolayer.
# cKIT = cKIT (Homo sapiens, UniProt P10721); assay: Off-chip mobility-shift kinase assay (Caliper LABCHIP), C-kit; details: for C-kit AVG % Activity at 1.0E−05: concentration 1.0E−05; for C-kit AVG % Activity at 1.0E−06: concentration 1.0E−06; for C-kit AVG % Activity at 1.0E−07: concentration 1.0E−07; for C-kit AVG % Activity at 1.0E−08: concentration 1.0E−08; for C-kit AVG % Activity at 3.0E−05: concentration 3.0E−05; for C-kit AVG % Activity at 3.0E−06: concentration 3.0E−06; for C-kit AVG % Activity at 3.0E−07: concentration 3.0E−07; for C-kit AVG % Activity at 3.0E−08: concentration 3.0E−08; for C-kit AVG % Activity at 3.0E−09: concentration 3.0E−09
# PDGFRβ = PDGFRβ (Homo sapiens, UniProt P09619); assay: Off-chip mobility-shift kinase assay (Caliper LABCHIP), PDGFR; details: for PDGFR AVG % Activity at 1.0E−06: concentration 1.0E−06; for PDGFR AVG % Activity at 1.0E−07: concentration 1.0E−07; for PDGFR AVG % Activity at 1.0E−08: concentration 1.0E−08; for PDGFR AVG % Activity at 1.0E−09: concentration 1.0E−09; for PDGFR AVG % Activity at 1.0E−10: concentration 1.0E−10; for PDGFR AVG % Activity at 3.0E−06: concentration 3.0E−06; for PDGFR AVG % Activity at 3.0E−07: concentration 3.0E−07; for PDGFR AVG % Activity at 3.0E−08: concentration 3.0E−08; for PDGFR AVG % Activity at 3.0E−09: concentration 3.0E−09; for PDGFR AVG % Activity at 3.0E−10: concentration 3.0E−10
# Thermodynamic solubility = assay type: physicochemical; details: aqueous buffer, thermodynamic from solid; phosphate buffered saline, pH 7.4; ambient temperature overnight
# Protocol: Test compound (2.5 mg of solid; n=1) is weighed in a clear glass vial and buffer (0.5 mL) is added (phosphate buffered saline, pH 7.4). The solution is agitated at ambient temperature overnight using a vial roller system. […] Duplicate aliquots (50 μL) are sampled from the filtrate and diluted with one volume of 0.1 N hydrochloric acid and methanol (1:1 v/v) before analysis by HPLC-UV. […] The concentration of test compound in the filtrate is quantified relative to the concentration standard.
# Analysis is performed using a gradient HPLC-UV system with a total cycle time of six minutes.
# ABL = ABL (Homo sapiens, UniProt P00519); assay: Off-chip mobility-shift kinase assay (Caliper LABCHIP), ABL; details: for ABL AVG % Activity at 1.0E−06: concentration 1.0E−06; for ABL AVG % Activity at 1.0E−06 / ABL AVG % Activity at 1.0E−07 / ABL AVG % Activity at 1.0E−08 / ABL AVG % Activity at 1.0E−09 / ABL AVG % Activity at 1.0E−10 / ABL AVG % Activity at 3.0E−06 / ABL AVG % Activity at 3.0E−07 / ABL AVG % Activity at 3.0E−08 / ABL AVG % Activity at 3.0E−09 / ABL AVG % Activity at 3.0E−10: imatinib-corresponding compounds; for ABL AVG % Activity at 1.0E−07: concentration 1.0E−07; for ABL AVG % Activity at 1.0E−08: concentration 1.0E−08; for ABL AVG % Activity at 1.0E−09: concentration 1.0E−09; for ABL AVG % Activity at 1.0E−10: concentration 1.0E−10; for ABL AVG % Activity at 3.0E−06: concentration 3.0E−06; for ABL AVG % Activity at 3.0E−07: concentration 3.0E−07; for ABL AVG % Activity at 3.0E−08: concentration 3.0E−08; for ABL AVG % Activity at 3.0E−09: concentration 3.0E−09; for ABL AVG % Activity at 3.0E−10: concentration 3.0E−10
# Sequence of ABL (P00519 whole entry): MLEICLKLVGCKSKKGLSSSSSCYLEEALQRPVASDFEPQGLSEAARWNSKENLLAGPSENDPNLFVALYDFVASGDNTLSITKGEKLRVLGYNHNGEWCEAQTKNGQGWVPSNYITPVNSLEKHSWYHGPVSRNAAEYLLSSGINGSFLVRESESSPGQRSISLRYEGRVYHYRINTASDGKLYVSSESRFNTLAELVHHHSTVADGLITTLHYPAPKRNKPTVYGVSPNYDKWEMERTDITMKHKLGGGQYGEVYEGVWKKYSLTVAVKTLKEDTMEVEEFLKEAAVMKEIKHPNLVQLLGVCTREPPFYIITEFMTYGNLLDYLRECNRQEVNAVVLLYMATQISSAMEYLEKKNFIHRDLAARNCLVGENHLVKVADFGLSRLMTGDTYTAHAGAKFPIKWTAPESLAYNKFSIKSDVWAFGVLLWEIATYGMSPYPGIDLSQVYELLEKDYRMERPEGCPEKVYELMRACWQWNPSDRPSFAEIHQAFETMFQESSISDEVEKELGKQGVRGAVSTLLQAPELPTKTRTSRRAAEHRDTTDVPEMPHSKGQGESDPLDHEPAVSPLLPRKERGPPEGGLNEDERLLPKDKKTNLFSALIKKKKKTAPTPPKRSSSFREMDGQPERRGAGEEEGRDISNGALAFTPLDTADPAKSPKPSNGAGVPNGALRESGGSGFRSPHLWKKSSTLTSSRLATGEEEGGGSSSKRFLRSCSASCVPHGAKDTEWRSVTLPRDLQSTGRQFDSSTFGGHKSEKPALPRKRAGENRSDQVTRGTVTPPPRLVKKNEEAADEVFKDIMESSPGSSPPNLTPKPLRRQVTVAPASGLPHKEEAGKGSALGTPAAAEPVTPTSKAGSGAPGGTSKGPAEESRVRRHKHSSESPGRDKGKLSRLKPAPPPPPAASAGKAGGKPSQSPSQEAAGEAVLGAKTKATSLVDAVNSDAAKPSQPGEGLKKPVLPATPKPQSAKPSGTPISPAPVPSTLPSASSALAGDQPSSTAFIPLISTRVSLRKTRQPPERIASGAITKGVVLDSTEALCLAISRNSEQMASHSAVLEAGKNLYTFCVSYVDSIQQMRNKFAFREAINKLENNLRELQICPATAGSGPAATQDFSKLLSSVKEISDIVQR
# Sequence of cKIT (P10721 26-976): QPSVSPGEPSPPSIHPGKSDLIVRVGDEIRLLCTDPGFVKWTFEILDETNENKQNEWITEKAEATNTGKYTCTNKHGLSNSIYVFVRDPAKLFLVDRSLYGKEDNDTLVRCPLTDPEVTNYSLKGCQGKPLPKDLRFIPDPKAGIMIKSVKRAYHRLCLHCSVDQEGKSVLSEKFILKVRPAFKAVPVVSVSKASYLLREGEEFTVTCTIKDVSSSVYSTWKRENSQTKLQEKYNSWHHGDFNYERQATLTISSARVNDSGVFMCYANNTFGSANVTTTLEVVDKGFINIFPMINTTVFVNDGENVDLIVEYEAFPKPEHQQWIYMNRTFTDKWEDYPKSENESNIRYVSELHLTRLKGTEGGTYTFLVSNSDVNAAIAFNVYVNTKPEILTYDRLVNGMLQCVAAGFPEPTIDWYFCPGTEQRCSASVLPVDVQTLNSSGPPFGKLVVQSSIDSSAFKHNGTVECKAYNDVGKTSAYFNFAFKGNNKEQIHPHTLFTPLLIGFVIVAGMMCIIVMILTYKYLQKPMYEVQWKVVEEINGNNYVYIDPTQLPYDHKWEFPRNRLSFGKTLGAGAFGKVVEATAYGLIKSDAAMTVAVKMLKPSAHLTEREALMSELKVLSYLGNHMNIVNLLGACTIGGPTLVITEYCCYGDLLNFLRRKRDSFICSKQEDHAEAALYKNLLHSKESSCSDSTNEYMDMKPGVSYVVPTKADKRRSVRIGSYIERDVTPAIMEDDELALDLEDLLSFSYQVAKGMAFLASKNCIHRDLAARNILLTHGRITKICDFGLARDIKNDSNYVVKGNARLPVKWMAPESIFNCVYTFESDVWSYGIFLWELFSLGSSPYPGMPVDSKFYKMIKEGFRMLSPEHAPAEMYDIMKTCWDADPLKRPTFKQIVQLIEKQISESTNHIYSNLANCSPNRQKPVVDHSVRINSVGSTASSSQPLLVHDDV
# Sequence of PDGFRβ (P09619 33-1106): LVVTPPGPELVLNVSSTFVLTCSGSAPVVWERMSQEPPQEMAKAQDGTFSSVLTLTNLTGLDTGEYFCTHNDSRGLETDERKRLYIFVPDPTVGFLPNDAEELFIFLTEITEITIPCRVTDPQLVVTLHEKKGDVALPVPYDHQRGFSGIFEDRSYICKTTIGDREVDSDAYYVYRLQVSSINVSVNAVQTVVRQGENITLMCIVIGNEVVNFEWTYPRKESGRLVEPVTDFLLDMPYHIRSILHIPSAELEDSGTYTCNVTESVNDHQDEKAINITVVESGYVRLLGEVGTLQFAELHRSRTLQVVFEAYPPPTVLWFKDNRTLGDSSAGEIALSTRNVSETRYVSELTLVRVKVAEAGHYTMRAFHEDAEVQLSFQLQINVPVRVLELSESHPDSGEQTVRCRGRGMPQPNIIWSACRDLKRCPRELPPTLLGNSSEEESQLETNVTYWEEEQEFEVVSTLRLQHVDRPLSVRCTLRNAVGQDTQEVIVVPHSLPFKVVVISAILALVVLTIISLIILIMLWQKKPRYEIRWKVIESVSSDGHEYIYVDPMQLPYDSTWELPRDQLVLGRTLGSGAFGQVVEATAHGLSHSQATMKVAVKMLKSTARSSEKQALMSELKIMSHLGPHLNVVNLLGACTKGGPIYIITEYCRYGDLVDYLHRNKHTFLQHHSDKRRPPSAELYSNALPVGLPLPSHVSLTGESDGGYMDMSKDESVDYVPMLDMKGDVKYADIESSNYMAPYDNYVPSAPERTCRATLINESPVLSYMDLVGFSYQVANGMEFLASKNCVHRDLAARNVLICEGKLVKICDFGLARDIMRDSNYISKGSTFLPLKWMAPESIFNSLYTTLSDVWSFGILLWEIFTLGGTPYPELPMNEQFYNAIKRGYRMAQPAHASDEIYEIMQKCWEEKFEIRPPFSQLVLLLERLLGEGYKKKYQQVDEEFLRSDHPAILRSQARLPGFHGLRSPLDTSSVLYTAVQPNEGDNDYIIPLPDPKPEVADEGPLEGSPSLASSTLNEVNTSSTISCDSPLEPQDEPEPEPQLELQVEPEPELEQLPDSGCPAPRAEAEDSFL
"Papp A→B at 120 min, 10 μM [1]","efflux ratio at 120 min, 10 μM [1]",IC50 (cKIT),C-kit AVG % Activity at 1.0E−05 (cKIT),C-kit AVG % Activity at 1.0E−06 (cKIT),C-kit AVG % Activity at 1.0E−07 (cKIT),C-kit AVG % Activity at 1.0E−08 (cKIT),C-kit AVG % Activity at 3.0E−05 (cKIT),C-kit AVG % Activity at 3.0E−06 (cKIT),C-kit AVG % Activity at 3.0E−07 (cKIT),C-kit AVG % Activity at 3.0E−08 (cKIT),C-kit AVG % Activity at 3.0E−09 (cKIT),IC50 (PDGFRβ),PDGFR AVG % Activity at 1.0E−06 (PDGFRβ),PDGFR AVG % Activity at 1.0E−07 (PDGFRβ),PDGFR AVG % Activity at 1.0E−08 (PDGFRβ),PDGFR AVG % Activity at 1.0E−09 (PDGFRβ),PDGFR AVG % Activity at 1.0E−10 (PDGFRβ),PDGFR AVG % Activity at 3.0E−06 (PDGFRβ),PDGFR AVG % Activity at 3.0E−07 (PDGFRβ),Compound,other results
0.01 ± 0.004 ×10⁻⁶ cm/s,482,1600 nM,9%,62%,93%,98%,2%,32%,81%,99%,99%,290 nM,11%,65%,83%,78%,89%,0%,38%,COCCOCCOCCOCCOCCOCCOCCOCCOCCNCc1ccc(C(=O)Nc2ccc(C)c(Nc3nccc(-c4cccnc4)n3)c2)cc1 [mPEG9-N-Imatinib],PDGFR AVG % Activity at 3.0E−08 (PDGFRβ): 75%; PDGFR AVG % Activity at 3.0E−09 (PDGFRβ): 100%; PDGFR AVG % Activity at 3.0E−10 (PDGFRβ): 86%; solubility (Thermodynamic solubility): 2700 µg/mL; IC50 (ABL): ≥ 3000 nM; ABL AVG % Activity at 1.0E−06 (ABL): 77%; ABL AVG % Activity at 1.0E−07 (ABL): 89%; ABL AVG % Activity at 1.0E−08 (ABL): 97%; ABL AVG % Activity at 1.0E−09 (ABL): 96%; ABL AVG % Activity at 1.0E−10 (ABL): 96%; ABL AVG % Activity at 3.0E−06 (ABL): 70%; ABL AVG % Activity at 3.0E−07 (ABL): 85%; ABL AVG % Activity at 3.0E−08 (ABL): 93%; ABL AVG % Activity at 3.0E−09 (ABL): 96%; ABL AVG % Activity at 3.0E−10 (ABL): 96%
0.05 ± 0.02 ×10⁻⁶ cm/s,359,550 nM,2%,35%,82%,91%,0%,12%,64%,92%,95%,340 nM,13%,74%,95%,99%,92%,0%,48%,COCCOCCOCCOCCOCCOCCOCCOCCOCCN1CCN(Cc2ccc(C(=O)Nc3ccc(C)c(Nc4nccc(-c5cccnc5)n4)c3)cc2)CC1 [mPEG9-N′-Imatinib],PDGFR AVG % Activity at 3.0E−08 (PDGFRβ): 86%; PDGFR AVG % Activity at 3.0E−09 (PDGFRβ): 100%; PDGFR AVG % Activity at 3.0E−10 (PDGFRβ): 95%; solubility (Thermodynamic solubility): 2500 µg/mL; IC50 (ABL): 3800 nM; ABL AVG % Activity at 1.0E−06 (ABL): 69%; ABL AVG % Activity at 1.0E−07 (ABL): 84%; ABL AVG % Activity at 1.0E−08 (ABL): 93%; ABL AVG % Activity at 1.0E−09 (ABL): 97%; ABL AVG % Activity at 1.0E−10 (ABL): 97%; ABL AVG % Activity at 3.0E−06 (ABL): 49%; ABL AVG % Activity at 3.0E−07 (ABL): 79%; ABL AVG % Activity at 3.0E−08 (ABL): 89%; ABL AVG % Activity at 3.0E−09 (ABL): 96%; ABL AVG % Activity at 3.0E−10 (ABL): 97%
0.04 ± 0.01 ×10⁻⁶ cm/s,391,1000 nM,6%,50%,88%,100%,1%,23%,76%,95%,99%,230 nM,13%,67%,96%,93%,97%,0%,39%,COCCOCCOCCOCCOCCOCCOCCNCc1ccc(C(=O)Nc2ccc(C)c(Nc3nccc(-c4cccnc4)n3)c2)cc1,PDGFR AVG % Activity at 3.0E−08 (PDGFRβ): 100%; PDGFR AVG % Activity at 3.0E−09 (PDGFRβ): 99%; PDGFR AVG % Activity at 3.0E−10 (PDGFRβ): 93%; solubility (Thermodynamic solubility): 3600 µg/mL; IC50 (ABL): ≥ 3000 nM; ABL AVG % Activity at 1.0E−06 (ABL): 73%; ABL AVG % Activity at 1.0E−07 (ABL): 90%; ABL AVG % Activity at 1.0E−08 (ABL): 94%; ABL AVG % Activity at 1.0E−09 (ABL): 97%; ABL AVG % Activity at 1.0E−10 (ABL): 97%; ABL AVG % Activity at 3.0E−06 (ABL): 59%; ABL AVG % Activity at 3.0E−07 (ABL): 82%; ABL AVG % Activity at 3.0E−08 (ABL): 94%; ABL AVG % Activity at 3.0E−09 (ABL): 96%; ABL AVG % Activity at 3.0E−10 (ABL): 97%

# From patent US20120094998A1, “Oligomer-Protein Tyrosine Kinase Inhibitor Conjugates” (Nektar Therapeutics, priority 2009, published 2012)
